The results in this text go back to patent US20230022803A1, “NOVEL CRYSTALLINE FORM OF GPR40 AGONIST” (ILDONG Pharmaceutical Co., Ltd., priority 2021, published 2023).

Structures are written as SMILES. Values after ≈ are worked out from the molar mass of the structure shown. Read-outs that look alike come from different tables or passages of the source. A value given as a limit tells only on which side of the number the result lay.

A short description of data set [1]: Thermal analysis (TGA and DSC). In kind it is physicochemical. The text has this:
The crystalline form Compound 1 prepared according to Example 1 was characterized by thermal gravimetric analysis (TGA) and differential scanning calorimetry (DSC). The TGA analysis was made by a TA Q5000 instrument. The DSC analysis was made by a TA Q2000 MDSC instrument. The instrumental parameters used are listed below.
FIGS. 2A and 2B show the results of the TGA and DSC analyses, respectively.

Data set [2] can be described thus: Gravimetric vapor sorption (GVS) analysis. It is filed as physicochemical. The text has this: The GVS analysis was made using an IGA Sorp instrument by Hiden Analytical. The instrumental parameters are listed below.
FIG. 6 illustrates the GVS analysis result.

Data set [3] is described as follows: Visual solubility analysis in 13 solvents. It is filed as physicochemical. The following applies: organic solvent or mixture, thermodynamic from solid, read-out: Solubility (S). How it is done: The solubility of the crystalline form Compound 1 was visually determined in 13 solvents. 5.0±0.2mg of the crystalline form Compound 1 was stirred at 20° C. with increasing volumes of solvents until a clear solution was visually observed.

For data set [4], the target named is GPR40 (Homo sapiens, UniProt O14842). Description: Cell-based aequorin assay (agonistic activity). The following applies: method and reference agonist of U.S. 2020/0223833. As to the method: The agonistic activity of the crystalline form of Compound 1 was measured by using the method described in U.S. Patent Application Publication No. 2020/0223833, which is incorporated herein by reference. The agonistic activity of the crystalline form of Compound 1 was higher than 70% of the activity of the reference agonist used in U.S. Patent Application Publication No. 2020/0223833, which falls within the category of the publication.
GPR40, sequence (O14842 whole entry, species assumed): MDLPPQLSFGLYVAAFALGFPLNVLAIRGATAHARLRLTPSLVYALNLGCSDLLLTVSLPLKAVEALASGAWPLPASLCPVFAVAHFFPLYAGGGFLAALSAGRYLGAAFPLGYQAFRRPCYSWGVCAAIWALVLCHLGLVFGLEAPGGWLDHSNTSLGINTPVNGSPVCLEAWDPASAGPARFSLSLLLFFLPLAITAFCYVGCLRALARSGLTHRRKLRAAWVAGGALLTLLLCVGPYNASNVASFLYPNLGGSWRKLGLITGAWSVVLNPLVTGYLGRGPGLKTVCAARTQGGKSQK

One may read the solubility as the dissolved amount per volume that the medium holds. Turning to `CC#C[C@@H](CC(=O)O)c1ccc(O[C@@H]2CCc3c(-c4ccc(O[C@@H]5CCOC5)nc4)ccc(F)c32)cc1` [Crystalline Form Compound 1, (S)-3-(4-(((R)-7-Fluoro-4-(6-(((R)-tetrahydrofuran-3-yl)oxy)pyridin-3-yl)-2,3-dihydro-1H-inden-1-yl)oxy)phenyl)hex-4-ynoic acid], the thermal stability entry in data set [1] (TGA/DSC, heating rate 10° C./min) is on record as “relatively high thermal stability”. In addition, in data set [1] (from ambient to 130° C.), the TGA weight loss was found to be 0.13 % w/w. The “2nd adsorption cycle (0-90% RH), adsorbed water” value in data set [2] (GVS isotherm, 25 °C, 0-90% RH) was found to be 0.135 % w/w. The “1st adsorption cycle (50-90% RH), adsorbed water” value in data set [2] (GVS isotherm, 25 °C, 50-90% RH) stood at 0.119 % w/w. Also, the “1st desorption cycle (90-0% RH), desorbed water” value in data set [2] (GVS isotherm, 25 °C, 90-0% RH) worked out at 0.127 % w/w. For the same compound, the hygroscopic behavior entry in data set [2] (GVS, 25 °C) is recorded as “non-hygroscopic”. Further, the weight gain result in data set [2] (from dryness to 90% RH during the second adsorption cycle) is recorded as “less than 0.2 % w/w”. In addition, the solubility is over 100000 µg/mL in data set [3] (2-Butanone, 20° C.); 5000 to 6000 µg/mL (≈ 9.97 to 12 mM) in data set [3] (2-Propanol, 20° C.); over 100000 µg/mL in data set [3] (Acetone, 20° C.); over 100000 µg/mL in data set [3] (Acetone/water 90:10, 20° C.); 6000 to 8000 µg/mL (≈ 12 to 16 mM) in data set [3] (Acetonitrile, 20° C.); over 100000 µg/mL in data set [3] (Dichloromethane, 20° C.). Moreover, the solubility in data set [3] (Ethyl acetate, 20° C.) is 50000 to 100000 µg/mL (≈ 99.7 to 199 mM); in data set [3] (Methanol, 20° C.) it was 6000 to 8000 µg/mL (≈ 12 to 16 mM); in data set [3] (Methanol/water 90:10, 20° C.) it was 1000 to 2000 µg/mL (≈ 1.99 to 3.99 mM); in data set [3] (Methyl tert-butyl ether, 20° C.), 2000 to 5000 µg/mL (≈ 3.99 to 9.97 mM); in data set [3] (Tetrahydrofuran, 20° C.), over 100000 µg/mL; in data set [3] (Toluene, 20° C.) it was 10000 to 12000 µg/mL (≈ 19.9 to 23.9 mM). The solubility in data set [3] (i-Propyl acetate, 20° C.) lay in the range of 17000 to 25000 µg/mL (≈ 33.9 to 49.8 mM). Besides, in data set [4], the “agonistic activity relative to the activity of the reference agonist” value is on record as “higher than 70%”.
